Like-named read-outs stand apart in the source and are kept apart here.
Key:
[1] = system: panel of approximately 60 different human tumor cell lines; experiment: National Cancer Institute drug screen, mean-graph parameters; type: cell-based; conditions: mean over cell line panel, two days exposure; for GI50: Homo sapiens, 48 h, read-out: Tumor Cell Mean log GI50 (converted)
Outline: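 About 60 human tumour cell lines in eight histology subpanels were exposed continuously to a concentration range for two days. GI50 (50% growth decrease versus untreated control), TGI (cell number equal to start) and LC50 (50% reduction versus start) were derived per cell line and summarised as mean-graph negative log10 values.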

[2] = system: minimum of 12 human cancer cell lines; experiment: Hollow fiber assay in mice, point score; type: in vivo; conditions: for Hollow Fiber Assay IP score: first number of cell; for Hollow Fiber Assay SC score: second number of cell; for IP+SC score / SC score: hollow fiber assay
Method: Compounds satisfying Formulas 1 and 2 also have been tested for in vivo activity in the hollow fiber assay. See Example 12 below for the procedure used for the in vivo tests. Each compound tested was tested against a minimum of 12 human cancer cell lines. Data is reported as % T/C (i.e., the […]) for each of the 2 compound doses against each of the cell lines with separate values calculated for the intraperitoneal and subcutaneous samples, with a target value for % T/C being about 50 or less.
Compounds were selected for further in vivo testing in standard subcutaneous xenograft models on the basis of several hollow fiber assay criteria. These criteria include: (1) a % T/C of 50 or less in 10 of the 48 possible test combinations (12 cell lines×2 sites×2 compound doses); (2) activity at a distance (intrapentoneal drug/subcutaneous culture) in a minimum of 4 of the 24 possible combinations; and/or (3) a net cell kill of 1 or more cell lines in either implant site. To simplify evaluation, a point system has been adopted which allows rapid assessment of a compound's activity. A value of 2 is assigned for each compound dose which results in a 50% or greater reduction in viable cell mass. The intraperitoneal and subcutaneous samples were scored separately so that criteria (1) and (2) could be evaluated. Compounds with a combined IP+SC score≧20, an SC score≧8, or a net cell kill of one or more cell lines were referred for xenograft testing. These criteria have been statistically validated by comparing the activity outcomes of greater than 80 randomly selected compounds in the hollow fiber assay and in the xenograft testing.
This example describes the method used for in vivo testing of mice. Human cancer cells were cultivated in polyvinylidene fluoride (PVDF) hollow fibers. A sample of each cancer cell line was implanted intraperitoneally and subcutaneously in mice. Each mouse received a total of 6 fibers, 3 intraperitoneally and 3 subcutaneously, representing 3 distinct cancer cell lines. Three mice were treated with compounds made according to the present invention at each of two test doses intraperitoneally using a QD×4 treatment schedule. Vehicle controls consisted of 6 mice receiving the compound diluent only The fiber cultures were collected on the day following the last treatment. Anticancer effects were assessed by determining viable cell mass for each of the coil line using a formazan dye (MTT) conversion assay. From this, the % TIC was calculated using the average optical density of the compound-treated samples divided by the average optical density of the vehicle controls. In addition, the net increase in cell mass was determined for each sample as samples of fiber cultures were assessed for viable cell mass on the day of implantation into mice. This allowed cytostatic and cytocidal capacities of these compounds to be assessed.

K562 cells = experiment: K562 cell culture and growth assay, 6 day MTT; type: cell-based, human; conditions: K562, 6 days, 4 or more experiments
Outline: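 Cells (2×10^3/well) in RPMI with 10% fetal calf serum incubated with increasing compound concentrations in DMSO, with DMSO-matched controls. Growth quantitated after 6 days by MTT reduction to formazan.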

[3] = Homo sapiens, 144 h, Table 10, mean ± S.E., read-out: IC50 (μM) 6dMTT
[4] = Table 10, mean ± S.E., read-out: IC50 (μM) 6dMTT
[5] = Table 8, intraperitoneal fibers
[6] = Homo sapiens, 144 h, Table 8, mean+S.E., read-out: IC50 (μM) 6 dMTT

Row | SMILES | IC50 (K562 cells; [6]) [µM] | Tumor Cell Mean log TGI ([1]; Table 10) | Hollow Fiber Assay IP score ([2]; Table 10) | Hollow Fiber Assay SC score ([2]; Table 10) | Hollow Fiber Assay Total Ip and SC Score ([2]; Table 10) | Tumor Cell Mean log GI50 ([1]; Table 8) | Tumor Cell Mean log TGI ([1]; Table 8) | Hollow Fiber Assay IP score [2, 5] | Hollow Fiber Assay SC score ([2]; Table 8, subcutaneous fibers) | Hollow Fiber Assay Total Ip and SC Score ([2]; Table 8) | also measured
1 | COC(=O)c1ccc(CCc2cc(O)c(Br)cc2O)cc1 | – | −4.54 | 0 + 0 = 0 | 0 + 0 = 0 | 0 + 0 = 0 | – | – | – | – | – | GI50 ([1]; Table 10): 12.3 µM; IC50 (K562 cells; [3]): 7 ± 0.5 µM
2 | COC(=O)c1ccc(CCC2=CC(=O)C(Br)=CC2=O)cc1 | – | −4.43 | 0 + 0 = 0 | 0 + 0 = 0 | 0 + 0 = 0 | – | – | – | – | – | GI50 ([1]; Table 10): 14.1 µM; IC50 (K562 cells; [3]): 36.5 ± 1 µM
3 | CC(C)OC(=O)c1ccc(CCC2=CC(=O)C(Br)=CC2=O)cc1 | – | −4.48 | 0 + 0 = 0 | 0 + 0 = 0 | 0 + 0 = 0 | – | – | – | – | – | Tumor Cell Mean log GI50 ([1]; Table 10): −4.85; IC50 (K562 cells; [4]): 59.8 ± 0.44 µM
4 | CC(C)(C)OC(=O)c1ccc(NCc2cc(O)ccc2O)cc1 [COOC(CH3)3 / H / H, 4′-t-butylbenzoate-1′-N-2,5-dihydroxybenzylamine] | 16.4 | – | – | – | – | −5.66 | −5.03 | 2 | 2 | 4 | –
5 | O=C(OCc1ccccc1)c1ccc(NCc2cc(O)ccc2O)cc1 [COOCH2Ph / H / H] | 12 | – | – | – | – | −5.85 | −5.35 | 6 | 2 | 8 | –
6 | COC(=O)c1ccc(C=Cc2cc(O)ccc2O)cc1 [COOCH3 / 2,5-dihydoxyphenyl / CH═CH / H] | – | −4.81 | 2 | 4 | 6 | – | – | – | – | – | GI50 ([1]; Table 10): 3.31 µM; IC50 (K562 cells; [3]): 9.72 ± 0.49 µM
7 | COC(=O)c1ccc(/C=C/C2=CC(=O)C=CC2=O)cc1 [COOCH3 / 2,5-quinoyl / CH═CH / H] | – | −4.40 | 2 | 0 | 2 | – | – | – | – | – | Tumor Cell Mean log GI50 ([1]; Table 10): −4.86; IC50 (K562 cells; [4]): 17.8 ± 0.22 µM
8 | CC(C)OC(=O)c1ccc(CCC2=CC(=O)C=CC2=O)cc1 [COOCH(CH3)2 / 2,5-quinoyl / CH2—CH2 / H] | – | −4.58 | 0 + 0 = 0 | 0 + 0 = 0 | 0 + 0 = 0 | – | – | – | – | – | Tumor Cell Mean log GI50 ([1]; Table 10): −5.05; IC50 (K562 cells; [4]): 19.9 ± 0.5 µM
9 | CC(C)OC(=O)c1ccc(NCc2cc(O)ccc2O)cc1Cl [COOCH(CH3)2 / Cl / H, 5′-chloro-4′-isopropylbenzoate-1′-N-2,5-dihydroxybenzylamine] | – | – | – | – | – | −5.46 | −5.65 | 2 | 0 | 2 | IC50 (K562 cells; Table 8, mean+S.E., read-out: IC50 (μM) 6 dMTT): 21.6 µM
10 | CC(C)C(OC(=O)c1ccc(NCC2=CC(=O)C=CC2=O)cc1)C(C)C [COOCH[CH(CH3)2]2 / H / 2,5-quinoyl] | – | – | – | – | – | – | – | – | – | – | Tumor Cell Mean log GI50 ([1]; Table 9): −5.25; Tumor Cell Mean log TGI ([1]; Table 9): −4.78; Hollow Fiber Assay IP score ([2]; Table 9, intraperitoneal fibers): 2; Hollow Fiber Assay SC score ([2]; Table 9, subcutaneous fibers): 4; Hollow Fiber Assay Total Ip and SC Score ([2]; Table 9): 6; IC50 (K562 cells; Table 9, mean ± S.E., read-out: IC50 (μM) 6dMTT): 38.8 ± 12.8 µM

More lines, main results first:

Row | IC50 (K562 cells; [6]) [µM] | SMILES | Tumor Cell Mean log TGI ([1]; Table 10) | Hollow Fiber Assay IP score ([2]; Table 10) | Hollow Fiber Assay SC score ([2]; Table 10) | Hollow Fiber Assay Total Ip and SC Score ([2]; Table 10) | Tumor Cell Mean log GI50 ([1]; Table 8) | Tumor Cell Mean log TGI ([1]; Table 8) | Hollow Fiber Assay IP score [2, 5] | Hollow Fiber Assay SC score ([2]; Table 8, subcutaneous fibers) | Hollow Fiber Assay Total Ip and SC Score ([2]; Table 8) | also measured
11 | 15.1 | CC(C)OC(=O)c1ccc(NCc2cc(O)ccc2O)cc1 [COOCH(CH3)2 / H / H] | – | – | – | – | −5.52 | −4.84 | 4 | 6 | 10 | –
12 | 9.98 | CC(C)C(OC(=O)c1ccc(NCc2cc(O)ccc2O)cc1)C(C)C [COOCH[CH(CH3)2]2 / H / H] | – | – | – | – | −5.91 | −5.35 | 4 | 2 | 6 | –
13 | 9.75 | O=C(OC12CC3CC(CC(C3)C1)C2)c1ccc(NCc2cc(O)ccc2O)cc1 [Compound 6, 4′-adamantylbenzoate-1′-N-2,5-dihydroxybenzylamine] | – | – | – | – | −6.03 | −5.44 | 8 | 8 | 16 | IP+SC score [2]: 16; SC score [2]: 8
14 | 12.8 | O=C(OCC12CC3CC(CC(C3)C1)C2)c1ccc(NCc2cc(O)ccc2O)cc1 [Compound 7, 4′-4′-adamantylmethylbenzoate-1′-N-2,5-dihydroxybenzylamine] | – | – | – | – | −5.89 | −5.09 | 12 | 8 | 20 | IP+SC score [2]: 20; SC score [2]: 8

Reference: patent publication US6943191B1, “Disubstituted lavendustin A analogs and pharmaceutical composition comprising the analogs” (The United States of America as represented by the …, priority 1998, dated 2005)
